This data set has as its system rodent carcinogenicity bioassays, tumor incidence. The data set can be described thus: CCRIS carcinogenicity studies. The text has this:
The CCRIS database contains chemical records with carcinogenicity, mutagenicity, tumor promotion, and tumor inhibition test results. It was developed by the National Cancer Institute (NCI). Data are derived from studies cited in primary journals, current awareness tools, NCI reports, and other sources. Test results have been reviewed by experts in carcinogenesis and mutagenesis.
CCRIS provides historical information from the years 1985 - 2011. It is no longer updated.
This is an archive assay for CCRIS carcinogenicity studies.

SMILES strings stand for the structures. Calls of active or inactive are those of the source. How the calls were made is not given here.

Turning to `[Cl][Cd][Cl]`, the carcinogen call (Species: HAMSTER, Strain/Sex: SYRIAN/FEMALE, Route: INHALATION, Dose: 0, 30 UG/M3 19 HR/D 5 D/WK FOR 65 WK FOR A TOTAL CADMIUM DOSE OF 0, 180 MG/M3 (STUDY DURATION: 76 WK), Dose: 0, 30 UG/M3 19 HR/D 5 D/WK FOR 65 WK FOR A TOTAL CADMIUM DOSE OF 0, 180 MG/M3 (STUDY DURATION: 76 WK)) was “inactive; negative”; the carcinogen call (Species: HAMSTER, Strain/Sex: SYRIAN/MALE, Route: INHALATION, Dose: 0, 30 UG/M3 19 HR/D 5 D/WK FOR 65 WK FOR A TOTAL CADMIUM DOSE OF 0, 180 MG/M3 (STUDY DURATION: 113 WK), Dose: 0, 30 UG/M3 19 HR/D 5 D/WK FOR 65 WK FOR A TOTAL CADMIUM DOSE OF 0, 180 MG/M3 (STUDY DURATION: 113 WK)) is “inactive; negative”; the carcinogen call (Species: MOUSE, Strain/Sex: BALB/MALE, Route: SUBCUTANEOUS, Dose: 0, 20 UMOL/KG 1/WK FOR 16 WK (STUDY DURATION: 104 WK), Tumor Site: Type of Lesion: HEMATOPOIETIC SYSTEM: TUMOR) was “active; positive”; the carcinogen call (Species: MOUSE, Strain/Sex: BALB/MALE, Route: SUBCUTANEOUS, Dose: 0, 20 UMOL/KG ONCE (STUDY DURATION: 104 WK)) is “inactive; negative”; the carcinogen call (Species: MOUSE, Strain/Sex: CD-1/MALE, Route: SUBCUTANEOUS, Dose: 0, 0.03 MMOL/KG BW (5.5 MG/KG BW), SINGLE DOSE, Tumor Site: Type of Lesion: TESTES: INTERSTITIAL CELL TUMOR) was “active; positive”; the carcinogen call (Species: MOUSE, Strain/Sex: CD-1/MALE, Route: SUBCUTANEOUS, Dose: 5.5 MG/KG ONCE, Tumor Site: Type of Lesion: TESTES: INTERSTITIAL CELL TUMOR) was “active; positive”. Besides, the carcinogen call reads like this: (Species: MOUSE, Strain/Sex: DBA/MALE, Route: SUBCUTANEOUS, Dose: 0, 40 UMOL/KG 1/WK FOR 16 WK (STUDY DURATION: 104 WK), Tumor Site: Type of Lesion: HEMATOPOIETIC SYSTEM: LYMPHOMA) “active; positive”; (Species: MOUSE, Strain/Sex: DBA/MALE, Route: SUBCUTANEOUS, Dose: 0, 40 UMOL/KG ONCE (STUDY DURATION: 104 WK)) “inactive; negative”; (Species: MOUSE, Strain/Sex: NFS/MALE, Route: SUBCUTANEOUS, Dose: 0, 40 UMOL/KG 1/WK FOR 16 WK (STUDY DURATION: 104 WK), Tumor Site: Type of Lesion: INJECTION SITE: TUMOR, LIVER: HEPATOCELLULAR ADENOMA OR CARCINOMA) “active; positive”; (Species: MOUSE, Strain/Sex: NFS/MALE, Route: SUBCUTANEOUS, Dose: 0, 40 UMOL/KG ONCE (STUDY DURATION: 104 WK), Tumor Site: Type of Lesion: LUNG: ADENOMA OR CARCINOMA) “active; positive”; (Species: MOUSE, Strain/Sex: SWISS/MALE, Route: SUBCUTANEOUS, Dose: 0, 40 UMOL/KG 1/WK FOR 16 WK BEGINNING AT 8 WK OF AGE (STUDY DURATION: 104 WK)) “inactive; negative”; (Species: MOUSE, Strain/Sex: SWISS/MALE, Route: SUBCUTANEOUS, Dose: 0, 40 UMOL/KG ONCE AT 8 WK OF AGE (STUDY DURATION: 104 WK), Tumor Site: Type of Lesion: ADRENAL GLAND: ADENOMA) “active; positive”. Also, the carcinogen call runs as follows: (Species: RAT, Strain/Sex: CS/MALE, Route: INTRAPROSTATIC, Dose: 0, 0.04 ML OF 0.1 MOLAR SOLUTION (0.73 MG) ONCE (STUDY DURATION: 250 D), Tumor Site: Type of Lesion: PROSTATE: CARCINOMA) “active; positive”; (Species: RAT, Strain/Sex: F344/MALE, Route: SUBCUTANEOUS, Dose: 0, 3 UMOL/KG BW ONCE, THEN 30 UMOL/KG BW 1X/WK FOR 17 WK BEGINNING 1 WK POST INITIAL DOSE (STUDY DURATION: 18 WK), Tumor Site: Type of Lesion: INJECTION SITE SARCOMA) “active; positive”; (Species: RAT, Strain/Sex: F344/MALE, Route: SUBCUTANEOUS, Dose: 0, 10, 20, 30 UMOL/KG BW 1X/WK FOR 18 WK (STUDY DURATION: 18 WK), Dose: 0, 10, 20, 30 UMOL/KG BW 1X/WK FOR 18 WK (STUDY DURATION: 18 WK), Tumor Site: Type of Lesion: INJECTION SITE SARCOMA) “active; positive”; (Species: RAT, Strain/Sex: F344/MALE, Route: SUBCUTANEOUS, Dose: 0, 30 UMOL/KG IN DORSAL THORACIC MIDLINE AREA ONCE (STUDY DURATION: 90 WK), Tumor Site: Type of Lesion: INJECTION SITE: SARCOMA, FIBROSARCOMA) “active; positive”; (Species: RAT, Strain/Sex: WISTAR/FEMALE, Route: INHALATION, Dose: 0, 30 UG/M3 22 HR/D 7 D/WK FOR 18 MO (STUDY DURATION: 31 MO), Tumor Site: Type of Lesion: LUNG: ALVEOLAR/BRONCHIOLAR ADENOMA, ADENOCARCINOMA) “active; positive”; (Species: RAT, Strain/Sex: WISTAR/FEMALE, Route: INHALATION, Dose: 0, 30 UG/M3 22 HR/D 7 D/WK FOR 18 MO (STUDY DURATION: 31 MO), Tumor Site: Type of Lesion: LUNG: TUMOR) “active; positive”.
